In ChEMBL document CHEMBL1201861, “Genomics of Drug Sensitity in Cancer screening data, Wellcome Trust Sanger Institute”:

Key:
Assay in all cases: cells
Details in all cases: Homo sapiens
[1] = test system: RS4-11; assay type: functional, cell-based;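 also: growth inhibition of RS4-11 cells, read out by a cell viability assay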
Description: SANGER: Inhibition of human RS4-11 cell growth in a cell viability assay.

[2] = test system: DSH1; assay type: functional, cell-based;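 also: growth inhibition of human DSH1 cells, measured with a cell viability readout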
Description: SANGER: Inhibition of human DSH1 cell growth in a cell viability assay.

[3] = test system: SK-N-FI; assay type: functional, cell-based;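 also: cell viability assay measuring growth inhibition of human SK-N-FI cells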
Description: SANGER: Inhibition of human SK-N-FI cell growth in a cell viability assay.

[4] = test system: EOL1; assay type: functional, cell-based;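 also: growth inhibition of EoL-1 cells, read out by a cell viability assay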
Description: SANGER: Inhibition of human EoL-1-cell cell growth in a cell viability assay.

[5] = test system: SCH; assay type: functional, cell-based;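 also: growth inhibition of human SCH cells, read out in a cell viability assay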
Description: SANGER: Inhibition of human SCH cell growth in a cell viability assay.

[6] = test system: HD-MY-Z; assay type: functional, cell-based;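 also: growth inhibition of HD-MY-Z cells, read out with a cell viability assay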
Description: SANGER: Inhibition of human HD-MY-Z cell growth in a cell viability assay.

[7] = test system: NCI-H720; assay type: functional, cell-based;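 also: growth inhibition of human NCI-H720 cells determined by a cell viability assay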
Description: SANGER: Inhibition of human NCI-H720 cell growth in a cell viability assay.

[8] = test system: HCC1187; assay type: functional, cell-based;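 also: growth inhibition of HCC1187 cells, read out with a cell viability assay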
Description: SANGER: Inhibition of human HCC1187 cell growth in a cell viability assay.

[9] = test system: RCC10RGB; assay type: functional, cell-based;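 also: growth inhibition of human RCC10RGB cells, read out by a cell viability assay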
Description: SANGER: Inhibition of human RCC10RGB cell growth in a cell viability assay.

[10] = test system: COLO-829; assay type: functional, cell-based
Description: SANGER: Inhibition of human COLO-829 cell growth in a cell viability assay.

[11] = test system: CTV-1; assay type: functional, cell-based;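 also: growth inhibition of the cell line, read out with a cell viability assay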
Description: SANGER: Inhibition of human CTV-1 cell growth in a cell viability assay.

[12] = test system: SNB-75; assay type: functional, cell-based;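 also: cell viability assay measuring growth inhibition of human SNB-75 cells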
Description: SANGER: Inhibition of human SNB75 cell growth in a cell viability assay.

[13] = test system: NCI-H23; assay type: functional, cell-based;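 also: cell viability assay measuring growth inhibition of NCI-H23 cells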
Description: SANGER: Inhibition of human NCI-H23 cell growth in a cell viability assay.

[14] = test system: MPP-89; assay type: functional, cell-based;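 also: growth inhibition of human MPP-89 cells, read out with a cell viability assay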
Description: SANGER: Inhibition of human MPP-89 cell growth in a cell viability assay.

[15] = test system: LU-139; assay type: functional, cell-based
Description: SANGER: Inhibition of human LU-139 cell growth in a cell viability assay.

[16] = test system: JVM-2; assay type: functional, cell-based;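 also: growth inhibition of JVM-2 cells determined by a cell viability assay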
Description: SANGER: Inhibition of human JVM-2 cell growth in a cell viability assay.

[17] = test system: RH-1; assay type: functional, cell-based;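 also: growth inhibition of human RH-1 cells, read out with a cell viability assay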
Description: SANGER: Inhibition of human RH-1 cell growth in a cell viability assay.

[18] = test system: SHP77; assay type: functional, cell-based, SHP-77;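 also: growth inhibition of human SHP-77 cells measured by a cell viability assay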
Description: SANGER: Inhibition of human SHP-77 cell growth in a cell viability assay.

[19] = test system: TGBC1TKB; assay type: functional, cell-based;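 also: growth inhibition of TGBC1TKB cells, read out by a cell viability assay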
Description: SANGER: Inhibition of human TGBC1TKB cell growth in a cell viability assay.

[20] = test system: LC-2-ad; assay type: functional, cell-based;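 also: growth inhibition of human LC-2-ad cells, read out with a cell viability assay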
Description: SANGER: Inhibition of human LC-2-ad cell growth in a cell viability assay.

[21] = test system: L-428; assay type: functional, cell-based
Description: SANGER: Inhibition of human L-428 cell growth in a cell viability assay.

[22] = test system: NCI-H2126; assay type: functional, cell-based;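 also: growth inhibition of the cancer cell line, determined with a cell viability readout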
Description: SANGER: Inhibition of human NCI-H2126 cell growth in a cell viability assay.

[23] = test system: MC116; assay type: functional, cell-based;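 also: growth inhibition of MC116 cells, read out with a cell viability assay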
Description: SANGER: Inhibition of human MC116 cell growth in a cell viability assay.

[24] = test system: KU812 cell line; assay type: functional, cell-based;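 also: growth inhibition of KU812 cells, read out with a cell viability assay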
Description: SANGER: Inhibition of human KU812 cell growth in a cell viability assay.

[25] = test system: EW-24; assay type: functional, cell-based;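 also: human EW-24 cancer cell line, growth inhibition read out via a cell viability assay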
Description: SANGER: Inhibition of human EW-24 cell growth in a cell viability assay.

[26] = test system: NH-12; assay type: functional, cell-based;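 also: growth inhibition of NH-12 cells, read out with a cell viability assay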
Description: SANGER: Inhibition of human NH-12 cell growth in a cell viability assay.

[27] = test system: IST-SL1; assay type: functional, cell-based;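 also: growth inhibition of human IST-SL1 cells, read out with a cell viability assay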
Description: SANGER: Inhibition of human IST-SL1 cell growth in a cell viability assay.

[28] = test system: SK-N-DZ; assay type: functional, cell-based;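 also: growth inhibition of the cancer cell line, read out through a viability assay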
Description: SANGER: Inhibition of human SK-N-DZ cell growth in a cell viability assay.

[29] = test system: HT-144; assay type: functional, cell-based
Description: SANGER: Inhibition of human HT-144 cell growth in a cell viability assay.

[30] = test system: DEL; assay type: functional, cell-based;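 also: growth inhibition of the human DEL cell line, read out with a cell viability assay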
Description: SANGER: Inhibition of human DEL cell growth in a cell viability assay.

[31] = test system: MZ2-MEL; assay type: functional, cell-based;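 also: growth inhibition of MZ2-MEL cells read out with a cell viability assay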
Description: SANGER: Inhibition of human MZ2-MEL cell growth in a cell viability assay.

[32] = test system: NCI-H1395; assay type: functional, cell-based;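 also: cell viability assay read-out quantifying reduced proliferation of human NCI-H1395 cells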
Description: SANGER: Inhibition of human NCI-H1395 cell growth in a cell viability assay.

[33] = test system: OCI-AML2; assay type: functional, cell-based;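 also: growth inhibition of OCI-AML2 cells, read out with a cell viability assay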
Description: SANGER: Inhibition of human OCI-AML2 cell growth in a cell viability assay.

[34] = test system: GAK; assay type: functional, cell-based;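 also: cell growth inhibition read out by a cell viability assay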
Description: SANGER: Inhibition of human GAK cell growth in a cell viability assay.

[35] = test system: NCI-H226; assay type: functional, cell-based;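 also: cell viability read-out used to gauge growth inhibition of the cells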
Description: SANGER: Inhibition of human NCI-H226 cell growth in a cell viability assay.

[36] = test system: BV-173; assay type: functional, cell-based
Description: SANGER: Inhibition of human BV-173 cell growth in a cell viability assay.

[37] = test system: KALS-1; assay type: functional, cell-based;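 also: growth inhibition of KALS-1 cells, determined with a cell viability assay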
Description: SANGER: Inhibition of human KALS-1 cell growth in a cell viability assay.

[38] = test system: NB13; assay type: functional, cell-based;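 also: cell viability readout measuring growth inhibition of human NB13 cells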
Description: SANGER: Inhibition of human NB13 cell growth in a cell viability assay.

[39] = test system: NCI-H82; assay type: functional, cell-based;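 also: growth inhibition of NCI-H82 cells, measured with a cell viability readout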
Description: SANGER: Inhibition of human NCI-H82 cell growth in a cell viability assay.

[40] = test system: Calu-6; assay type: functional, cell-based;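 also: growth of human Calu-6 cells, read out by a cell viability assay, IC50 marking inhibition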
Description: SANGER: Inhibition of human Calu-6 cell growth in a cell viability assay.

[41] = test system: LAMA-84; assay type: functional, cell-based;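 also: growth inhibition of LAMA-84 cells, read out with a cell viability assay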
Description: SANGER: Inhibition of human LAMA-84 cell growth in a cell viability assay.

[42] = test system: SK-UT-1; assay type: functional, cell-based;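 also: growth inhibition of SK-UT-1 cells, measured by a cell viability assay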
Description: SANGER: Inhibition of human SK-UT-1 cell growth in a cell viability assay.

[43] = test system: COLO-824; assay type: functional, cell-based
Description: SANGER: Inhibition of human COLO-824 cell growth in a cell viability assay.

[44] = test system: OVCAR-4; assay type: functional, cell-based;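 also: growth inhibition of human OVCAR-4 cells, measured with a cell viability assay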
Description: SANGER: Inhibition of human OVCAR-4 cell growth in a cell viability assay.

[45] = test system: A3-KAW; assay type: functional, cell-based;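 also: growth inhibition of human A3-KAW cells, read out with a cell viability assay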
Description: SANGER: Inhibition of human A3-KAW cell growth in a cell viability assay.

[46] = test system: MFM-223; assay type: functional, cell-based
Description: SANGER: Inhibition of human MFM-223 cell growth in a cell viability assay.

[47] = test system: SW684; assay type: functional, cell-based;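 also: growth inhibition of human SW684 cells, measured by a cell viability assay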
Description: SANGER: Inhibition of human SW684 cell growth in a cell viability assay.

[48] = test system: TE-12; assay type: functional, cell-based;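 also: growth inhibition of TE-12 cells, read out by a cell viability assay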
Description: SANGER: Inhibition of human TE-12 cell growth in a cell viability assay.

[49] = test system: A498; assay type: functional, cell-based;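 also: growth inhibition of human A498 cells, read out with a cell viability assay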
Description: SANGER: Inhibition of human A498 cell growth in a cell viability assay.

[50] = test system: OCUB-M; assay type: functional, cell-based;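 also: growth inhibition of the cancer cell line, read out through a cell viability assay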
Description: SANGER: Inhibition of human OCUB-M cell growth in a cell viability assay.

[51] = test system: ATN-1; assay type: functional, cell-based;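 also: growth inhibition of human ATN-1 cells, read out with a cell viability assay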
Description: SANGER: Inhibition of human ATN-1 cell growth in a cell viability assay.

[52] = test system: CAS-1; assay type: functional, cell-based;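 also: growth inhibition of CAS-1 cells, measured with a cell viability assay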
Description: SANGER: Inhibition of human CAS-1 cell growth in a cell viability assay.

[53] = test system: NCI-H510A; assay type: functional, cell-based;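 also: growth inhibition of NCI-H510A cells, read out with a cell viability assay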
Description: SANGER: Inhibition of human NCI-H510A cell growth in a cell viability assay.

[54] = test system: NCI-H1304; assay type: functional, cell-based;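 also: growth inhibition of the cancer cell line, measured in a cell viability assay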
Description: SANGER: Inhibition of human NCI-H1304 cell growth in a cell viability assay.

[55] = test system: ETK-1; assay type: functional, cell-based;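 also: growth inhibition of human ETK-1 cells, read out with a cell viability assay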
Description: SANGER: Inhibition of human ETK-1 cell growth in a cell viability assay.

[56] = test system: EC-GI-10; assay type: functional, cell-based
Description: SANGER: Inhibition of human EC-GI-10 cell growth in a cell viability assay.

[57] = test system: SW872; assay type: functional, cell-based;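 also: growth inhibition of SW872 cells, read out by a viability assay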
Description: SANGER: Inhibition of human SW872 cell growth in a cell viability assay.

[58] = test system: LB2518-MEL; assay type: functional, cell-based
Description: SANGER: Inhibition of human LB2518-MEL cell growth in a cell viability assay.

[59] = test system: HAL-01; assay type: functional, cell-based
Description: SANGER: Inhibition of human HAL-01 cell growth in a cell viability assay.

[60] = test system: NCI-H1092; assay type: functional, cell-based
Description: SANGER: Inhibition of human NCI-H1092 cell growth in a cell viability assay.

[61] = test system: NCI-H1770; assay type: functional, cell-based
Description: SANGER: Inhibition of human NCI-H1770 cell growth in a cell viability assay.

[62] = test system: DMS-114; assay type: functional, cell-based
[63] = test system: DMS-79; assay type: functional, cell-based
Description: SANGER: Inhibition of human DMS-79 cell growth in a cell viability assay.

[64] = test system: OS-RC-2; assay type: functional, cell-based
Description: SANGER: Inhibition of human OS-RC-2 cell growth in a cell viability assay.

[65] = test system: BB65-RCC; assay type: functional, cell-based
Description: SANGER: Inhibition of human BB65-RCC cell growth in a cell viability assay.

[66] = test system: no-10; assay type: functional, cell-based
Description: SANGER: Inhibition of human no-10 cell growth in a cell viability assay.

**Q.** What does the source list for `CC[C@]1(O)C[C@@H]2CN(CCc3c([nH]c4ccccc34)[C@@](C(=O)OC)(c3cc4c(cc3OC)N(C)[C@H]3[C@@](O)(C(=O)OC)[C@H](OC(C)=O)[C@]5(CC)C=CCN6CC[C@]43[C@@H]65)C2)C1` [VINBLASTINE]?
**A.** IC50 [1]: 4.51 nM; IC50 [2]: 23.2 nM; IC50 [3]: > 100 nM; IC50 [4]: 1.26 nM; IC50 [5]: 29.7 nM; IC50 [6]: 3.33 nM; IC50 [7]: 6.88 nM; IC50 [8]: 2.75 nM; IC50 [9]: > 100 nM; IC50 [10]: 19.2 nM; IC50 [11]: 1.41 nM; IC50 [12]: 11.2 nM; IC50 [13]: 5.71 nM; IC50 [14]: 30.3 nM; IC50 [15]: 14.1 nM; IC50 [16]: > 100 nM; IC50 [17]: 3.4 nM; IC50 [18]: > 100 nM; IC50 [19]: 31.2 nM; IC50 [20]: 7.9 nM; IC50 [21]: > 100 nM; IC50 [22]: 25.9 nM; IC50 [23]: 7.95 nM; IC50 [24]: 16.8 nM; IC50 [25]: 18 nM; IC50 [26]: 26.3 nM; IC50 [27]: 1.19 nM; IC50 [28]: 37.4 nM; IC50 [29]: 3.32 nM; IC50 [30]: 2.16 nM; IC50 [31]: 60.3 nM; IC50 [32]: 4.28 nM; IC50 [33]: > 100 nM; IC50 [34]: > 100 nM; IC50 [35]: 13.8 nM; IC50 [36]: 42.3 nM; IC50 [37]: 7.79 nM; IC50 [38]: 3.27 nM; IC50 [39]: > 100 nM; IC50 [40]: > 100 nM; IC50 [41]: 7.01 nM; IC50 [42]: 11.7 nM; IC50 [43]: > 100 nM; IC50 [44]: 27.9 nM; IC50 [45]: 4.32 nM; IC50 [46]: > 100 nM; IC50 [47]: > 100 nM; IC50 [48]: > 100 nM; IC50 [49]: 5.94 nM; IC50 [50]: 7.56 nM; IC50 [51]: 1.03 nM; IC50 [52]: 93.1 nM; IC50 [53]: 2.75 nM; IC50 [54]: > 100 nM; IC50 [55]: 5.79 nM; IC50 [56]: 3.53 nM; IC50 [57]: > 100 nM; IC50 [58]: > 100 nM; IC50 [59]: > 100 nM; IC50 [60]: > 100 nM; IC50 [61]: 28.5 nM; IC50 [62]: 20.9 nM; IC50 [63]: > 100 nM; IC50 [64]: 69.8 nM; IC50 [65]: 20.7 nM; IC50 [66]: > 100 nM

**Q.** Which results are given for `CO[C@@]12[C@H](COC(N)=O)C3=C(C(=O)C(C)=C(N)C3=O)N1C[C@@H]1N[C@@H]12` [MITOMYCIN]?
**A.** IC50 [1]: 34.9 nM; IC50 [2]: 96.5 nM; IC50 [3]: > 16000 nM; IC50 [4]: 162 nM; IC50 [5]: > 16000 nM; IC50 [6]: 640 nM; IC50 [7]: 1540 nM; IC50 [8]: 8920 nM; IC50 [9]: 1350 nM; IC50 [10]: 2090 nM; IC50 [11]: 18.7 nM; IC50 [12]: 303 nM; IC50 [13]: 1210 nM; IC50 [14]: 991 nM; IC50 [15]: 1220 nM; IC50 [16]: 397 nM; IC50 [17]: 49.6 nM; IC50 [18]: 1380 nM; IC50 [19]: 1210 nM; IC50 [20]: < 62.5 nM; IC50 [21]: 1160 nM; IC50 [22]: 260 nM; IC50 [23]: 1420 nM; IC50 [24]: 150 nM; IC50 [25]: 783 nM; IC50 [26]: 139 nM; IC50 [27]: 1450 nM; IC50 [28]: 2390 nM; IC50 [29]: 23.8 nM; IC50 [30]: 48.4 nM; IC50 [31]: 432 nM; IC50 [32]: 2230 nM; IC50 [33]: < 62.5 nM; IC50 [34]: 596 nM; IC50 [35]: 777 nM; IC50 [36]: < 62.5 nM; IC50 [37]: 129 nM; IC50 [38]: 646 nM; IC50 [39]: 2800 nM; IC50 [40]: 320 nM; IC50 [41]: 642 nM; IC50 [42]: 82.8 nM; IC50 [43]: 1440 nM; IC50 [44]: 697 nM; IC50 [45]: 35 nM; IC50 [46]: 10400 nM; IC50 [47]: > 16000 nM; IC50 [48]: 190 nM; IC50 [49]: > 16000 nM; IC50 [50]: 103 nM; IC50 [51]: 17.4 nM; IC50 [52]: 3380 nM; IC50 [53]: 403 nM; IC50 [54]: 375 nM; IC50 [55]: 108 nM; IC50 [56]: 14900 nM; IC50 [57]: < 62.5 nM; IC50 [58]: 535 nM; IC50 [59]: 15.7 nM; IC50 [60]: 3280 nM; IC50 [61]: 343 nM; IC50 [62]: 2090 nM; IC50 [63]: 2470 nM; IC50 [64]: 264 nM; IC50 [65]: 145 nM; IC50 [66]: 300 nM
